Data set [1] has as its target T1, Bombyx mori EcR (VP16-BmEcR, CVBE) (Bombyx mori, UniProt P49881).
T1 construct: expressed in transfected cells
T1 sequence (P49881 86-606): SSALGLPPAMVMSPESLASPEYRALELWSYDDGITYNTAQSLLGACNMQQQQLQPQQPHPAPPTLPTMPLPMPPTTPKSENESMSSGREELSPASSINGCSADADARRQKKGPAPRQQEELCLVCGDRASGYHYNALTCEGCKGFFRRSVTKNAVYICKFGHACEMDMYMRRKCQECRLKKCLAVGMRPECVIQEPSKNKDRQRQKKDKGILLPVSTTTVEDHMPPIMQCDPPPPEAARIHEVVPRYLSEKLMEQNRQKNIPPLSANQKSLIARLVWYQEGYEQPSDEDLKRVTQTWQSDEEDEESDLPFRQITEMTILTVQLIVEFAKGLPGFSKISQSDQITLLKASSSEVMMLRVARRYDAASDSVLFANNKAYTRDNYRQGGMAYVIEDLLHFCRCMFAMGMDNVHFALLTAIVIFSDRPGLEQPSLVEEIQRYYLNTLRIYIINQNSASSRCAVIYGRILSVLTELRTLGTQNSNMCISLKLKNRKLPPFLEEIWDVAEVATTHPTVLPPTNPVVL
Briefly: Z3 assay (HEK-293 clone Z3 with CVBE and 6x EcRE LacZ, β-galactosidase reporter). The class given is cell-based. Conditions: 48 h, average of two wells.

The next data set has as its target T2, DmEcR + LmUSP (Drosophila melanogaster, UniProt P34021).
T2 sequence (P34021 342-878): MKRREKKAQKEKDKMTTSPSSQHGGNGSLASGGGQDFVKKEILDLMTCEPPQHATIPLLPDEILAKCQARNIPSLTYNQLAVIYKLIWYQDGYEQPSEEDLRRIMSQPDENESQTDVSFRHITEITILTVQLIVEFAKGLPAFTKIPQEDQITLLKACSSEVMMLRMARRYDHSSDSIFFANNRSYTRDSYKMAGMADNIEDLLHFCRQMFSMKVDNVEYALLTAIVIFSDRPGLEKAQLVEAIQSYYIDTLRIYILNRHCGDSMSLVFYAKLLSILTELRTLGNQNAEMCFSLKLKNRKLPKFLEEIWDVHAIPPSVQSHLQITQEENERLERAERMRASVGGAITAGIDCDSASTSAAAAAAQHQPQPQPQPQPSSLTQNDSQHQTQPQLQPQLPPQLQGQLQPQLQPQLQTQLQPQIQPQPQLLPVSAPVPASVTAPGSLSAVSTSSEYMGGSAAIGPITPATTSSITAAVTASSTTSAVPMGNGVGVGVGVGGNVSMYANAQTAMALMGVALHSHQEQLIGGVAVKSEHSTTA
As to conditions: DmEcR + LmUSP in 3T3 cells, reporter assayed 48 h after ligand. (Reporter assays use an easily measured gene product as a stand-in for the process of interest.)

The next data set has as its target T3, Gal4DBD/AaEcR (DEF) (Aedes aegypti, UniProt P49880).
T3 construct: The wildtype D, E, and F domains from mosquito Aedes aegypti EcR; expressed in transfected cells; host or cells: 3T3 cells
Briefly: cell-based. Conditions: 33 μM; 3T3 cells; 48 h; average of two wells. The data set is classed as cell-based. In a few lines: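 Single-dose ligand testing at 33 μM, applied in serum medium after 4 h transfection. Host was 3T3 cells carrying Gal4DBD/AaEcR (DEF) plus a 5× GAL4 RE-driven firefly luciferase reporter (pFRLuc).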

The next data set deals with CfEcR + LmUSP. As to conditions: CfEcR + LmUSP in 3T3 cells, reporter assayed 48 h after ligand.

Structures are written as SMILES.

T3 sequence (P28704 286-520 A311G/G315S/G445S/I449V): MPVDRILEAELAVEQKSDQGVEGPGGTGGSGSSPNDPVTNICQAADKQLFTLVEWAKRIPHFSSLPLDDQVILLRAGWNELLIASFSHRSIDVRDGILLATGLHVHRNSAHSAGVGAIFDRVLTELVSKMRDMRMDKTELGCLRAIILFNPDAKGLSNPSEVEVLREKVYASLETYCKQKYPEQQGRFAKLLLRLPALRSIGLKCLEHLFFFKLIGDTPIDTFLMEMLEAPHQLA
T3 sequence (P49880 405-776): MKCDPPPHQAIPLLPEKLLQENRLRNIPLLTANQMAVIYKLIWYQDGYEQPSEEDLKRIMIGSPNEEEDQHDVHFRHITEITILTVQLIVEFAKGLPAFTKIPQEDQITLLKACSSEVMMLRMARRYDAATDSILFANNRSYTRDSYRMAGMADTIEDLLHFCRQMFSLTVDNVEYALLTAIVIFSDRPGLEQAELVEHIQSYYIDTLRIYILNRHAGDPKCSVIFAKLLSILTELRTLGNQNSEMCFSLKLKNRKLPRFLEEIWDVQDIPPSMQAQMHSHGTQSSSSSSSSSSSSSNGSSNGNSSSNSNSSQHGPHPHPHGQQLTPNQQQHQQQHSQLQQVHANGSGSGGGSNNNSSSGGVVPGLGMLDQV
Protocol for CfEcR + LmUSP: 1.9—Gal4CfEcR-DEF/VP16LmRXR-EF: This construct was prepared in the same way as switch 1.1 except LmRXR-EF (SEQ ID NO: 18) was used in place of HsRXRβ-LmRXREF chimera.
(§1) To determine if any of the compounds shown in Table 1 and Table 2 can act as inducers of reporter gene activity in a transactivation assay, these compounds were tested in NIH3T3 cells transfected with pFRLUC reporter and gene expression cassettes, 1.1 to 1.8 described in Example 1. […] At 48 hr after adding ligand, the cells were harvested and reporter activity was assayed using Dual Luciferase assay kit (Promega carporation). Total relative light units (RLU) are shown. Standard methods for culture and maintenance of the cells were followed.
(§2) Transfections: DNAs corresponding to the various switch constructs outlined in Example I, specifically switches 1.1 through 1.8, were transfected into mouse NIH3T3 cells (ATCC) as follows. Cells were harvested when they reached 50% confluency and plated in 6-, 12- or 24-well plates at 125,000, 50,000, or 25,000 cells, respectively, in 2.5, 1.0, or 0.5 ml of growth medium containing 10% fetal bovine serum (FBS), respectively. The next day, the cells were rinsed with growth medium and transfected for four hours. […] For 12-well plates, 4 μl of Superfect™ was mixed with 100 μl of growth medium. 1.0 μg of reporter construct and 0.25 μg of each receptor construct of the receptor pair to be analyzed were added to the transfection mix. A second reporter construct was added [pTKRL (Promega), 0.1 μg/transfection mix] that comprises a Renilla luciferase gene operably linked and placed under the control of a thymidine kinase (TK) constitutive promoter and was used for normalization. The contents of the transfection mix were mixed in a vortex mixer and let stand at room temperature for 30 min. At the end of incubation, the transfection mix was added to the cells maintained in 400 μl growth medium. The cells were maintained at 37° C. and 5% CO2 for four hours. At the end of incubation, 500 μl of growth medium containing 20% FBS and either dimethylsulfoxide (DMSO; control) or a DMSO solution of 0.1, 1, and 10 μM ligand was added and the cells were maintained at 37° C. and 5% CO2 for 48 hours. The cells were harvested and reporter activity was assayed. The same procedure was followed for 6 and 24 well plates as well except all the reagents were doubled for 6 well plates and reduced to half for 24-well plates.
(§3) Ligands: All ligands were dissolved in DMSO and the final concentration of DMSO was maintained at 0.1% in both controls and treatments.
(§4) Reporter Assays: Cells were harvested 48 hours after adding ligands. 125, 250, or 500 μl of passive lysis buffer (part of Dual-luciferase™ reporter assay system from Promega Corporation) were added to each well of 24- or 12- or 6-well plates respectively. The plates were placed on a rotary shaker for 15 minutes. Twenty μl of lysate were assayed. Luciferase activity was measured using Dual-luciferase™ reporter assay system from Promega Corporation following the manufacturer's instructions.
Protocol for DmEcR + LmUSP: as §1, §2, §3, §4

With `C[C@H]1C[C@H](Nc2ccc(F)cc2)c2cc(F)ccc2N1C(=O)c1ccc(F)c(C(F)(F)F)c1` (relative stereo) [Compound I-5], the “Fold Induction Average, Z3V1 Assay 33 μM” value in data set [1] worked out at 96 fold. Besides, the “Fold Induction (10 μM)” value at DmEcR + LmUSP (10 μM) is recorded as 8 fold; with CfEcR + LmUSP it was 69 fold. The “Fold Induction (100 μM)” value at DmEcR + LmUSP (100 μM) amounted to 7 fold. The “Fold Induction Average, AA_3T3V1 Assay 33 μM” value at Gal4DBD/AaEcR (DEF) is recorded as 366 fold.

Source of the values: US20050228016A1, “TETRAHYDROQUINOLINES FOR MODULATING THE EXPRESSION OF EXOGENOUS GENES VIA AN ECDYSONE RECEPTOR COMPLEX” (priority 2002, published 2005).
